The target of data set [1] is T1, Myeloperoxidase (Mus musculus, UniProt P11247).
T1 sequence (P11247 whole entry): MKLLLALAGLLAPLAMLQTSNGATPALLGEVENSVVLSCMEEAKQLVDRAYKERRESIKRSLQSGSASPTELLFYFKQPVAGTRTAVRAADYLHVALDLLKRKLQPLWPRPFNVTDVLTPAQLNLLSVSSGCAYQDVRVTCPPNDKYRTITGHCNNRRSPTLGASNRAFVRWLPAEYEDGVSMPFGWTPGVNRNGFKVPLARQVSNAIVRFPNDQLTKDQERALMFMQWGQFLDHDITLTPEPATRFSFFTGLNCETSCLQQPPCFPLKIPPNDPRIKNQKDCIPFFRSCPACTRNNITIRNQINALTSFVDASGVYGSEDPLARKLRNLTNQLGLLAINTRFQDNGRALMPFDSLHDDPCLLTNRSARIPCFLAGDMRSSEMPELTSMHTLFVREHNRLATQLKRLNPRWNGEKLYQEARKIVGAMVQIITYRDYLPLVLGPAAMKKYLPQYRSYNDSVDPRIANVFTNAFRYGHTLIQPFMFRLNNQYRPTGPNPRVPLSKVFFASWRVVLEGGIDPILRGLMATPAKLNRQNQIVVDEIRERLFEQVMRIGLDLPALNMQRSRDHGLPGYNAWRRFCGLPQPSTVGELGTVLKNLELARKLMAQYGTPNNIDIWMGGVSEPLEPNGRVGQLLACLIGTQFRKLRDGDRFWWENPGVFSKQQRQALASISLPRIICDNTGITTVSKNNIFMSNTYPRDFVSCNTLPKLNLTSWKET
In words: Inhibition of PMA-induced MPO in mouse Neutrophil incubated for 3 mins by luminometry. The data set is classed as tissue-based.

Data set [2] is described as follows: Binding affinity to human neutrophil MPO delta (1-95) measured for 5 mins by SPR assay. On the technique in general: SPR reads the build-up and loss of mass on a sensor chip optically.
Data set [3] in a line: Metabolic stability in rat liver microsomes assessed as compound remaining. The class given is ADME, Microsome.
The target in data set [4] is T2, Cytochrome P450 2C8 (Homo sapiens, UniProt P10632).
T2 sequence (P10632 whole entry): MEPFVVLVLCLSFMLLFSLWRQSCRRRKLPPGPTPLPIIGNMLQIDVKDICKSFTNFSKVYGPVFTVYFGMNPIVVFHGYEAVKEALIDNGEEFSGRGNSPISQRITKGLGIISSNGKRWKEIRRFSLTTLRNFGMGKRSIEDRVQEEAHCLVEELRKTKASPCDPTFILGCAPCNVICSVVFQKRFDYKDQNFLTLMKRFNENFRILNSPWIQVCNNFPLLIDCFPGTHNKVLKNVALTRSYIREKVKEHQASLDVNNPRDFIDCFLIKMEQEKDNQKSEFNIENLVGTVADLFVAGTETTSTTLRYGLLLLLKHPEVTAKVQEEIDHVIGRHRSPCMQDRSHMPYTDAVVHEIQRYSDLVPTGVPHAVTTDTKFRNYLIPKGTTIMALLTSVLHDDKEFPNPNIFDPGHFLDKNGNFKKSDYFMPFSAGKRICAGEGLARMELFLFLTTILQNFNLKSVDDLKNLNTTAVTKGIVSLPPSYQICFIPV
Briefly: Inhibition of CYP2C8 (unknown origin). The class given is ADME.

Data set [5] concerns the target T3, Cytochrome P450 2B6 (Homo sapiens, UniProt P20813).
T3 sequence (P20813 whole entry): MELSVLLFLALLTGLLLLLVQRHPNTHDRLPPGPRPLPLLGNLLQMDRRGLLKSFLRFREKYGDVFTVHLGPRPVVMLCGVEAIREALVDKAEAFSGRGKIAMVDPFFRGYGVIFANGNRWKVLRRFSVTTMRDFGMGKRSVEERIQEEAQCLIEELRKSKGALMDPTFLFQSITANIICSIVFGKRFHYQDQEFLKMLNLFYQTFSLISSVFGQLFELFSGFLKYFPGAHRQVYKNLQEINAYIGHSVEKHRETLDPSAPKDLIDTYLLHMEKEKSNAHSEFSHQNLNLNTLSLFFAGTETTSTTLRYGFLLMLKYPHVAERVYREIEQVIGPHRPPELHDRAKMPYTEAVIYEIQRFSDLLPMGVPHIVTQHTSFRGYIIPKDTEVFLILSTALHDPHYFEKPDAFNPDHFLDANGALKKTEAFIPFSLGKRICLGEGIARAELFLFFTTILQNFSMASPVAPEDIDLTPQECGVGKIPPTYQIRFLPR
In words: Inhibition of CYP2B6 (unknown origin). The data set is classed as ADME.

Data set [6] addresses T4, Myeloperoxidase (Homo sapiens, UniProt P05164).
T4 sequence (P05164 whole entry): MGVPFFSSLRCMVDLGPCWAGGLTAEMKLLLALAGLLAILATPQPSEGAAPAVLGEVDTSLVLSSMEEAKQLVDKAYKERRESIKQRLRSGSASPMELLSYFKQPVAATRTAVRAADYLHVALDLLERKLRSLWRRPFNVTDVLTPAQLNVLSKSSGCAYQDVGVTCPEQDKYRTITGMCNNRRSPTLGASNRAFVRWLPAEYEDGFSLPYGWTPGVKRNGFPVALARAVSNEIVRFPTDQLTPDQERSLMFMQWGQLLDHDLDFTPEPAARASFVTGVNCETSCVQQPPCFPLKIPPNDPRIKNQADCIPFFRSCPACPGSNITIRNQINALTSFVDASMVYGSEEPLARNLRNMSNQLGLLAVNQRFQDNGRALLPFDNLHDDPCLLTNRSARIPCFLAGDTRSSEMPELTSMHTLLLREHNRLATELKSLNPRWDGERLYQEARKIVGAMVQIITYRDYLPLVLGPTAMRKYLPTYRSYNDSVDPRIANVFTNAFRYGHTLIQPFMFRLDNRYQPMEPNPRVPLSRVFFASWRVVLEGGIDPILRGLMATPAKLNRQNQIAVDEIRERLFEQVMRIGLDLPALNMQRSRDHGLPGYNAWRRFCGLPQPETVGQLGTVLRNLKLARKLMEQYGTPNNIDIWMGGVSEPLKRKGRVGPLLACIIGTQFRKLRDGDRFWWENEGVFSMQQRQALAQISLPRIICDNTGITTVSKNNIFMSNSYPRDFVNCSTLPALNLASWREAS
Briefly: Inhibition of recombinant human MPO incubated for 10 mins by amplex red dye based assay.

Data set [7] concerns the target T5, Methylated-DNA--protein-cysteine methyltransferase (Homo sapiens, UniProt P16455).
T5 sequence (P16455 whole entry): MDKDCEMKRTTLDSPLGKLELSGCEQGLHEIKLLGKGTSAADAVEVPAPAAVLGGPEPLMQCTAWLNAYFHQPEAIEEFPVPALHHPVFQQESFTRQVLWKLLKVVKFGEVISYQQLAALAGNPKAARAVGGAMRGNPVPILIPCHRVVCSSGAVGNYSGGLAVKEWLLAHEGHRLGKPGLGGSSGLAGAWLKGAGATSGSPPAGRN
In words: Inhibition of human MGMT using 06-benzylguanine as substrate incubated for 30 mins by LC/MS analysis. The settings on record: 0.5 h.

The target of data set [8] is Cytochrome P450 2D6 (Homo sapiens, UniProt P10635). In words: Inhibition of CYP2D6 (unknown origin). The data set is classed as ADME.
The nature of data set [9]: Metabolic stability in human liver microsomes assessed as compound remaining. The class given is ADME, Microsome. (Microsomes from liver hold many membrane-bound enzymes, among them those of drug oxidation.)
The subject of data set [10] is Neutrophil. The settings on record: Homo sapiens, time 5.0 min.
Data set [11] is described as follows: Metabolic stability in mouse liver microsomes assessed as compound remaining. The class given is ADME, Microsome.
Data set [12] deals with T6, Cytochrome P450 1A2 (Homo sapiens, UniProt P05177).
T6 sequence (P05177 whole entry): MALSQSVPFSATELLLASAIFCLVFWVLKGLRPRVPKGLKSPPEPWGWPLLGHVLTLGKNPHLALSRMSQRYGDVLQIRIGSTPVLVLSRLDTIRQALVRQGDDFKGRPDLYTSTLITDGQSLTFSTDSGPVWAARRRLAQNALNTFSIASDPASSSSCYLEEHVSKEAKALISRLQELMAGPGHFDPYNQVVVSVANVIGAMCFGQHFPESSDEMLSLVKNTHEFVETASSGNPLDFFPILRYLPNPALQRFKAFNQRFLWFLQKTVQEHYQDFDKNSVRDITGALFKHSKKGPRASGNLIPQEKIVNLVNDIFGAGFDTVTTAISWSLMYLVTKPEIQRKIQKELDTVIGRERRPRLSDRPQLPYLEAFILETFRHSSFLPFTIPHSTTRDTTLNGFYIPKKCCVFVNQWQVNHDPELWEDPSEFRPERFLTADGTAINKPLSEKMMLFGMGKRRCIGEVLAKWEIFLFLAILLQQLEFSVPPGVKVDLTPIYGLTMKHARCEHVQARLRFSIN
In words: Inhibition of CYP1A2 (unknown origin). The class given is ADME.

Data set [13] is described as follows: Permeability of compound at pH 7.4 by PAMPA assay. The data set is classed as ADME. The settings on record: read-out: permeability. Background: In PAMPA a lipid-coated filter parts donor from acceptor wells.
A short description of data set [14]: Dissociation constant, pKa of the compound. The data set is classed as physicochemical.
The nature of data set [15]: Half life in CD-1 mouse at 3 mg/kg, po by LC/MS analysis. The data set is classed as ADME, organism-based. The settings on record: in vivo.
A short description of data set [16]: AUCtot in CD-1 mouse at 3 mg/kg, po by LC/MS analysis. The data set is classed as ADME, organism-based. More on the design: time AUCmax, route oral, dose 3 mg/kg. The settings on record: in vivo.
A short description of data set [17]: Permeability of compound at pH 5.5 by PAMPA assay. The class given is ADME. The settings on record: read-out: permeability.
For data set [18], the target named is Cytochrome P450 3A4 (Homo sapiens, UniProt P08684). In words: Inhibition of CYP3A4 (unknown origin). The data set is classed as ADME.
Chain of Cytochrome P450 3A4 (P08684 whole entry): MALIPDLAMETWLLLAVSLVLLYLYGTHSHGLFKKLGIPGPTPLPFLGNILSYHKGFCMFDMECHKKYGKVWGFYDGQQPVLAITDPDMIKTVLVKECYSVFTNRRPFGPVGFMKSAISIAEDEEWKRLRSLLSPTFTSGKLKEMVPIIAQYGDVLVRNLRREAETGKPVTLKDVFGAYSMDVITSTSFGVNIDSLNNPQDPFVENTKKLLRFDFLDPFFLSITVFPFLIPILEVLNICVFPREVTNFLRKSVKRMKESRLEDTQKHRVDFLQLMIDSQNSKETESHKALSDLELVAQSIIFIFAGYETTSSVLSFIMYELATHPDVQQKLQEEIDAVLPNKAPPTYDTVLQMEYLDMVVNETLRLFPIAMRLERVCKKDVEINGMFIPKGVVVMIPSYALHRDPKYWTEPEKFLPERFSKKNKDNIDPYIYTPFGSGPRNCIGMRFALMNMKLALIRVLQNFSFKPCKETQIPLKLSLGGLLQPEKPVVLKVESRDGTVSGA

Chain of Cytochrome P450 2D6 (P10635 whole entry): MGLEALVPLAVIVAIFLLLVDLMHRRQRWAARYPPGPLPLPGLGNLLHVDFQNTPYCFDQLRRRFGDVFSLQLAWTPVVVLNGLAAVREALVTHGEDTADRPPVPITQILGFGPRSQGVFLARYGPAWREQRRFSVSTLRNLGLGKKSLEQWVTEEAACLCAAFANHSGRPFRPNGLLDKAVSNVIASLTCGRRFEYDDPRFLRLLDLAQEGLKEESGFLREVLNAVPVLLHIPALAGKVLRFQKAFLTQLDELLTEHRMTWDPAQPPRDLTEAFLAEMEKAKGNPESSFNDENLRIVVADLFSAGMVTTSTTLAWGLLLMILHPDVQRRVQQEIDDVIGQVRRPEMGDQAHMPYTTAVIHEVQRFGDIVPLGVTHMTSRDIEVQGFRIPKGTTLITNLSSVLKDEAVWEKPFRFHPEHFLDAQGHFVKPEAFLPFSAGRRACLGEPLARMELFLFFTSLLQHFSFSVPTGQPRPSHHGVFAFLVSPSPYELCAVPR

For orientation: IC50 means the concentration needed to halve the response being measured. In data set [1], `O=c1[nH]c(=S)n(C[C@H]2CCCO2)c2nc[nH]c12` registered an IC50 of 32.5 µM.
As a reminder, the Kd is the concentration at which binding is half-saturated. Lower therefore signals tighter binding. As a reminder, the pKa is the pH at which an ionisable group is half protonated. A higher pKa goes with a group that holds its proton tightly. Usually half-life stands for the time needed for the level to fall by half in the phase considered. A low value points to fast loss. As a reminder, the AUC is the area under the concentration-time curve, a measure of exposure. A high value points to high exposure. Turning to `Nc1nc(OCc2ccccc2)c2[nH]nnc2n1`, the Kd in data set [2] is 0.547 µM. The Stabilty in [3] came out at 95%; in [9], 93%; in [11], 80%. The IC50 in data set [4] was > 10 µM; in data set [5], > 10 µM; in data set [6] it was 0.103 µM; in data set [8] it was > 10 µM; in data set [12], > 10 µM; in [18] it was > 10 µM. Further, the “inhibition (INH)” value in [7] is reported as “Active”. In data set [10], the Ka was 1.3 10^3/M.s. The Kdiss in data set [10] was 0.72 10^-3/s. For the same compound, the Papp turned out to be 16.7 ×10⁻⁶ cm/s in data set [13] and 42 ×10⁻⁶ cm/s in data set [17]. The pKa in data set [14] stood at 6.6. The compound also gave a half-life in [15] of 2.4 h. For the same compound, the AUC in data set [16] came out at 22.2 µM·h.

These data come from ChEMBL document CHEMBL4699540, “Discovery and structure activity relationships of 7-benzyl triazolopyridines as stable, selective, and reversible inhibitors of myeloperoxidase” (Bioorg Med Chem, 2020).
